Test results as given in patent US8323695B2, “Method for stabilizing phenylephrine” (McNeil-PPC, Inc., priority 2007, dated 2012).
Counter-ions that a name gives are not always drawn.

Tests used:
[1] = Formation of phenylephrine-maleate adducts as a function of pH; assay type: physicochemical; conditions: combined with chlorpheniramine maleate
Text: Phenylephrine may be unstable in the presence of active ingredients which are the soluble salts of maleic acid. Phenylephrine-Maleate adducts form when phenylephrine hydrochloride is combined with chlorpheniramine maleate in solution and in solid dosage forms. This is due to the presence of phenylephrine with maleic acid. It was discovered that a pH below 6.0 yields low levels of one type of phenylephrine-maleate adduct (degradant #1) and it was also discovered that a pH above 4.5 yields low levels of a second type of phenylephrine-maleate adduct (degradant #2).

[2] = Stability of phenylephrine in solid formulations after spray drying an acidic solution; assay type: physicochemical
Text: Phenylephrine is known to experience physical and chemical degradation. Degradation of phenylephrine may be caused by a variety of factors including, but not limited to, the presence of oxygen, moisture, reducible sugars, bases, high temperatures, etc. […] Degradation of phenylephrine may be noticed by a change in color, e.g. changing from a whitish color to a darker, blackish color. Additionally, phenylephrine may degrade chemically as recorded by degradation peaks during analysis, such as an HPLC analysis. It is desirable to prevent, reduce or minimize the degradation of phenylephrine. An embodiment of the present invention provides a stable pharmaceutical composition having phenylephrine in a therapeutically effective amount wherein the phenylephrine has been spray dried. An additional embodiment of the present invention provides a stable composition of phenylephrine in a therapeutically effective amount wherein the phenylephrine has been layered or sprayed onto a substrate.

Row | Structure (SMILES) | levels of second type of phenylephrine-maleate adduct (degradant #2) ([1]; pH above 4.5) | levels of phenylephrine-maleate adduct (degradant #1) ([1]; pH below 6.0) | stability of phenylephrine in solid formulations [2]
1 | CNC[C@H](O)c1cccc(O)c1 [phenylephrine hydrochloride] | low levels | low levels | –
2 | CNC[C@H](O)c1cccc(O)c1 [phenylephrine] | – | – | increases the stability
